Test results from patent US5391540A, “Substituted pyridine compounds” (Rohm and Haas Company, priority 1993, dated 1995).

How the values were obtained:
Type in all cases: in vivo
Barnyardgrass = test: Pre-emergent herbicidal activity (Table A); details: Echinochloa crus-galli, pre-emergence, Bygr, 11.2 kg/ha, 10-14 days, read-out: herbicidal rating (% inhibition)
Summary of the method: (§1)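 Percent inhibition per species, scored on a rating scale, after pre-emergent soil incorporation: test compound in acetone or water carrier mixed into cover soil, layered over seeded topsoil or vegetative propagules.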

Morningglory = test: Pre-emergent herbicidal activity (Table A); details: Ipomoea, pre-emergence, Mogl, 11.2 kg/ha, 10-14 days, read-out: herbicidal rating (% inhibition)
Summary of the method: as §1

Cocklebur = test: Pre-emergent herbicidal activity (Table A); details: Xanthium strumarium, pre-emergence, Cobu, 11.2 kg/ha, 10-14 days, read-out: herbicidal rating (% inhibition)
Summary of the method: as §1

Yellow Nutsedge = test: Pre-emergent herbicidal activity (Table A); details: Cyperus, pre-emergence, Yens, 11.2 kg/ha, 10-14 days, read-out: herbicidal rating (% inhibition)
Summary of the method: as §1

Velvetleaf = test: Pre-emergent herbicidal activity (Table A); details: Abutilon theophrasti, pre-emergence, Vele, 11.2 kg/ha, 10-14 days, read-out: herbicidal rating (% inhibition)
Summary of the method: as §1

Downy Brome = test: Pre-emergent herbicidal activity (Table A); details: Bromus tectorum, pre-emergence, Dobr, 11.2 kg/ha, 10-14 days, read-out: herbicidal rating (% inhibition)
Summary of the method: as §1

Lacg = test: plant injury after spraying emerged plants (Table D); set-up: scale not given here
From the text: (§2) Topsoil (silt loam) is sieved through a screen having 1.27 cm openings. […] This mixture is steam sterilized and then placed in aluminum pans 6.985 cm deep having ten holes in the bottom each 0.635 cm in diameter. The soil mixture is compacted to a depth of 1.27 cm. from the top of the pan. A predetermined number of seeds of each of several dicotyledonous and monocotyledonous annual plant species and/or vegetative propagules for the perennial plant species are placed on the soil and pressed into the soil surface. The seeds and/or vegetative propagules are covered with 1.27 cm of a mixture of 50% topsoil and 50% of a mixture of Canadian sphagnum peat moss, vermiculite and a wetting agent. The pans are then placed on a capillary mat on a greenhouse bench and subirrigated as needed.
(§3) In the following Table D the legends used to identify the plant species are the same as those used in the preceding Table B.

Whez = test: as above; set-up: scale not given here
From the text: as §2, §3

Corn = test: as above; set-up: scale not given here
From the text: as §2, §3

Sobe = test: as above; set-up: scale not given here
From the text: as §2, §3

Bygr = test: as above; set-up: scale not given here
From the text: as §2, §3

Prmi = test: as above; set-up: scale not given here
From the text: as §2, §3

Mogl = test: as above; set-up: scale not given here
From the text: as §2, §3

Cobu = test: as above; set-up: scale not given here
From the text: as §2, §3

Grft = test: as above; set-up: scale not given here
From the text: as §2, §3

Rice = test: as above; set-up: scale not given here
From the text: as §2, §3

Grso = test: as above; set-up: scale not given here
From the text: as §2, §3

COC(=O)c1c(OC)nc(C(F)(F)F)c(C(=O)NCCCBr)c1CC(C)C [Compound 97, 3-pyridinecarboxylic acid, 5-[[(3-bromopropyl)amino)carbonyl]-2-methoxy-4-(2-methylpropyl)-6-(trifluoromethyl)-, methyl ester]
0: plant injury rating, Lacg (Lacg; 0.0701 kg/ha) | plant injury rating, Lacg (Lacg; 0.2803 kg/ha) | plant injury rating, Lacg (Lacg; 5.6050 kg/ha) | plant injury rating, Whez (Whez; 0.0701 kg/ha) | plant injury rating, Whez (Whez; 0.2803 kg/ha) | plant injury rating, Whez (Whez; 1.1210 kg/ha) | plant injury rating, Whez (Whez; 5.6050 kg/ha) | plant injury rating, Corn (Corn; 0.0701 kg/ha) | plant injury rating, Corn (Corn; 0.2803 kg/ha) | plant injury rating, Corn (Corn; 1.1210 kg/ha) | plant injury rating, Corn (Corn; 5.6050 kg/ha) | plant injury rating, Sobe (Sobe; 0.0701 kg/ha) | plant injury rating, Sobe (Sobe; 0.2803 kg/ha) | plant injury rating, Sobe (Sobe; 1.1210 kg/ha) | plant injury rating, Sobe (Sobe; 5.6050 kg/ha) | plant injury rating, Bygr (Bygr; 0.0701 kg/ha) | plant injury rating, Bygr (Bygr; 0.2803 kg/ha) | plant injury rating, Bygr (Bygr; 1.1210 kg/ha) | plant injury rating, Bygr (Bygr; 5.6050 kg/ha) | plant injury rating, Prmi (Prmi; 0.0701 kg/ha) | plant injury rating, Prmi (Prmi; 0.2803 kg/ha) | plant injury rating, Prmi (Prmi; 1.1210 kg/ha) | plant injury rating, Prmi (Prmi; 5.6050 kg/ha) | plant injury rating, Mogl (Mogl; 0.0701 kg/ha) | plant injury rating, Mogl (Mogl; 0.2803 kg/ha) | plant injury rating, Mogl (Mogl; 1.1210 kg/ha) | plant injury rating, Mogl (Mogl; 5.6050 kg/ha) | plant injury rating, Cobu (Cobu; 0.0701 kg/ha) | plant injury rating, Cobu (Cobu; 0.2803 kg/ha) | plant injury rating, Cobu (Cobu; 1.1210 kg/ha) | plant injury rating, Cobu (Cobu; 5.6050 kg/ha) | plant injury rating, Grft (Grft; 0.0701 kg/ha) | plant injury rating, Grft (Grft; 0.2803 kg/ha) | plant injury rating, Grft (Grft; 1.1210 kg/ha) | plant injury rating, Grft (Grft; 5.6050 kg/ha) | plant injury rating, Rice (Rice; 0.0701 kg/ha) | plant injury rating, Rice (Rice; 0.2803 kg/ha) | plant injury rating, Rice (Rice; 1.1210 kg/ha) | plant injury rating, Rice (Rice; 5.6050 kg/ha) | plant injury rating, Grso (Grso; 0.0701 kg/ha) | plant injury rating, Grso (Grso; 0.2803 kg/ha) | plant injury rating, Grso (Grso; 1.1210 kg/ha) | plant injury rating, Grso (Grso; 5.6050 kg/ha)
50 to 74%: inhibition at 11200 g/ha (Morningglory) | inhibition at 11200 g/ha (Velvetleaf) | inhibition at 11200 g/ha (Downy Brome)
2: plant injury rating, Lacg (Lacg; 1.1210 kg/ha)
75 to 100%: inhibition at 11200 g/ha (Barnyardgrass)
0 to 24%: inhibition at 11200 g/ha (Cocklebur) | inhibition at 11200 g/ha (Yellow Nutsedge)

COC(=O)c1c(OC)nc(C(F)(F)F)c(N=CSC)c1CC(C)C [Compound 77, 3-pyridinecarboxylic acid, 2-methoxy-4-(2-methylpropyl)-5-[[(methylthio)methylene]amino]-6-(trifluoromethyl)-, methyl ester]
0: plant injury rating, Whez (Whez; 1.1210 kg/ha) | plant injury rating, Whez (Whez; 2.8025 kg/ha) | plant injury rating, Whez (Whez; 5.6050 kg/ha) | plant injury rating, Bygr (Bygr; 1.1210 kg/ha) | plant injury rating, Prmi (Prmi; 1.1210 kg/ha) | plant injury rating, Prmi (Prmi; 2.8025 kg/ha) | plant injury rating, Prmi (Prmi; 5.6050 kg/ha) | plant injury rating, Grft (Grft; 1.1210 kg/ha) | plant injury rating, Rice (Rice; 1.1210 kg/ha) | plant injury rating, Rice (Rice; 2.8025 kg/ha) | plant injury rating, Rice (Rice; 5.6050 kg/ha) | plant injury rating, Rice (Rice; 11.2100 kg/ha)
1: plant injury rating, Sobe (Sobe; 1.1210 kg/ha) | plant injury rating, Sobe (Sobe; 2.8025 kg/ha) | plant injury rating, Mogl (Mogl; 1.1210 kg/ha) | plant injury rating, Cobu (Cobu; 2.8025 kg/ha) | plant injury rating, Grft (Grft; 2.8025 kg/ha) | plant injury rating, Grso (Grso; 2.8025 kg/ha) | plant injury rating, Grso (Grso; 11.2100 kg/ha)
75 to 100%: inhibition at 11200 g/ha (Barnyardgrass) | inhibition at 11200 g/ha (Morningglory) | inhibition at 11200 g/ha (Yellow Nutsedge) | inhibition at 11200 g/ha (Velvetleaf) | inhibition at 11200 g/ha (Downy Brome)
50 to 74%: inhibition at 11200 g/ha (Cocklebur)
2: plant injury rating, Lacg (Lacg; 1.1210 kg/ha) | plant injury rating, Corn (Corn; 2.8025 kg/ha) | plant injury rating, Corn (Corn; 5.6050 kg/ha) | plant injury rating, Bygr (Bygr; 5.6050 kg/ha) | plant injury rating, Mogl (Mogl; 2.8025 kg/ha) | plant injury rating, Mogl (Mogl; 5.6050 kg/ha)
3: plant injury rating, Lacg (Lacg; 2.8025 kg/ha) | plant injury rating, Lacg (Lacg; 5.6050 kg/ha) | plant injury rating, Lacg (Lacg; 11.2100 kg/ha) | plant injury rating, Corn (Corn; 11.2100 kg/ha) | plant injury rating, Bygr (Bygr; 11.2100 kg/ha) | plant injury rating, Mogl (Mogl; 11.2100 kg/ha) | plant injury rating, Cobu (Cobu; 11.2100 kg/ha)
